For assay [1], the target named is recombinant human kinase domain of TYK2 (Homo sapiens (Human), UniProt P29597). The assay can be described thus: JAK Caliper enzyme assay at 1 mM ATP (TYK2).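 Note: microfluidic mobility-shift readout of synthetic peptide phosphorylation by TYK2, tuned to 20–30% conversion at room temperature, reaction stopped with EDTA, DMSO-only wells as uninhibited baseline.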 It is filed as biochemical. The conditions noted are these: 1 mM ATP; read-out: IC50 (nM) TYK2.
For assay [2], the target named is recombinant human kinase domain of JAK2 (Homo sapiens (Human), UniProt O60674). The assay can be described thus: JAK Caliper enzyme assay at 1 mM ATP (JAK2).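 Note: microfluidic mobility-shift read-out of fluorescent synthetic peptide phosphorylation, percent product converted from peak heights, room temperature, DMSO-only wells as uninhibited baseline, inhibition curve fit.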 The class given is biochemical.
recombinant human kinase domain of JAK2, sequence (O60674 849-1124): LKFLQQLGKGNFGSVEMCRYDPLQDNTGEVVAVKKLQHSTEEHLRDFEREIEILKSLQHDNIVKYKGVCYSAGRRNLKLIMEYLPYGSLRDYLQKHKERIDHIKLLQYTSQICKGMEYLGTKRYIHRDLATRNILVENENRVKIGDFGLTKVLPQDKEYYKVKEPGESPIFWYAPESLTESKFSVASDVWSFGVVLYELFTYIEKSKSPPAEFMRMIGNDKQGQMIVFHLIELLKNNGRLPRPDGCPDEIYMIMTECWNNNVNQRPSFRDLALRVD
The target of assay [3] is recombinant human kinase domain of JAK3 (Homo sapiens (Human), UniProt P52333). As to the kind of experiment: JAK Caliper enzyme assay at 1 mM ATP (JAK3).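 Note: microfluidic mobility-shift readout of synthetic peptide phosphorylation, percent product converted from peak heights, normalized to DMSO-only wells as uninhibited baseline, room temperature incubation.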 It is filed as biochemical. The conditions noted are these: 1 mM ATP; read-out: IC50 (nM) JAK3.
recombinant human kinase domain of JAK3, sequence (P52333 822-1111): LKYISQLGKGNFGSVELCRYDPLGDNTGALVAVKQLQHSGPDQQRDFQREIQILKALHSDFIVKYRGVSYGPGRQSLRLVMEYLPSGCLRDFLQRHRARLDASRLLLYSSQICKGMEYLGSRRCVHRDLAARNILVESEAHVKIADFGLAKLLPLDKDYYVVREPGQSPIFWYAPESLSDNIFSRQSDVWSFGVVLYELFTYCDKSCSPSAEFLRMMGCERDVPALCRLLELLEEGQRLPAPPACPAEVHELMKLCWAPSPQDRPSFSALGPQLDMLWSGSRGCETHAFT
Assay [4] addresses recombinant human kinase domain of JAK1 (Homo sapiens (Human), UniProt P23458). As to the kind of experiment: JAK Caliper enzyme assay at 1 mM ATP (JAK1).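 Note: microfluidic mobility-shift readout of synthetic fluorescent peptide phosphorylation, percent product converted from peak height, inhibition relative to DMSO-only wells as uninhibited baseline, room temperature incubation.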 The class given is biochemical. The conditions noted are these: 1 mM ATP; read-out: IC50 (nM) JAK1.
Assay [5] deals with interferon alpha signalling (TYK2 and JAK1), STAT3 phosphorylation. The assay can be described thus: Human whole blood INFα induced STAT3 phosphorylation assay.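 Note: flow cytometry with anti-pSTAT3 staining, signal as percent-positive × mean fluorescence, baseline from unstimulated wells, 11-point dilution series, IC50 as inhibition of pSTAT3.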 The conditions noted are these: compound 60 minutes at 37° C., IFNα 5000 U/ml for 15 minutes, pSTAT3 in lymphocyte population by flow cytometry, read-out: HWB IFN alpha IC50. It is filed as cell-based. For orientation: A flow cytometer gives signals particle by particle.

recombinant human kinase domain of TYK2, sequence (P29597 897-1176): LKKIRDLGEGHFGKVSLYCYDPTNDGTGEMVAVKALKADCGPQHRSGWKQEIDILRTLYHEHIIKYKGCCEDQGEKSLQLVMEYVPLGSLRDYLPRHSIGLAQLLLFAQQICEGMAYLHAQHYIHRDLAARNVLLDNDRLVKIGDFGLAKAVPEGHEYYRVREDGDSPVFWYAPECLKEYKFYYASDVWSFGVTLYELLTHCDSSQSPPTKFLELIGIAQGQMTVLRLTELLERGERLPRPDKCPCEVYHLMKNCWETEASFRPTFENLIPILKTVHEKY
recombinant human kinase domain of JAK1, sequence (P23458 875-1153): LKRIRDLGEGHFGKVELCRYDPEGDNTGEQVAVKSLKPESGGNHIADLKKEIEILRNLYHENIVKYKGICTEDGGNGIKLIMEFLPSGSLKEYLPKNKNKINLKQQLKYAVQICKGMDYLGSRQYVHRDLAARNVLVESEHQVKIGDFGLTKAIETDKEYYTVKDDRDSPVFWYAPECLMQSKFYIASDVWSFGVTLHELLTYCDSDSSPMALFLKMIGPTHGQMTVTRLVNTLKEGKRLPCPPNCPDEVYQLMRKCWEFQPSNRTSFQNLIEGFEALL

`CNC(=O)c1ncc(Nc2nccc(N3C[C@H]4CC[C@@H](C3)N4Cc3ccno3)n2)cc1C` [Example 53, N,3-dimethyl-5-({4-[(1R,5S)-8-(1,2-oxazol-5-ylmethyl)-3,8-diazabicyclo[3.2.1]oct-3-yl]pyrimidin-2-yl}amino)pyridine-2-carboxamide]: the IC50 (in general, the concentration at which inhibition is half-maximal) was 24 nM in assay [1]; 375 nM in assay [2]; above 10000 nM in assay [3]; 226 nM in assay [4]; 287 nM in assay [5].
In the case of `CCNC(=O)c1ccc(Nc2nccc(N3CC4CC(C3)N4C(=O)C(F)(F)F)n2)cc1C` [Example 115, N-ethyl-2-methyl-4-({4-[6-(trifluoroacetyl)-3,6-diazabicyclo[3.1.1]hept-3-yl]pyrimidin-2-yl}amino)benzamide], the IC50 in assay [1] is 64 nM; in assay [2] it was 3310 nM; in assay [3], above 10000 nM; in assay [4], 3790 nM; in assay [5] it was 234 nM.
For `CNC(=O)c1ncc(Nc2nccc(N3C[C@H]4CC[C@@H](C3)N4C(=O)[C@@H]3CC3(F)F)n2)cc1C` (single isomer, unassigned) [Example 33] the same measures were 15 nM, 116 nM, 9280 nM, 62 nM and 122 nM.
Take `Cn1cc(Nc2nccc(N3C[C@H]4CC[C@@H](C3)N4Cc3ccno3)n2)cn1` [Example 56, N-(1-methyl-1H-pyrazol-4-yl)-4-[(1R,5S)-8-(1,2-oxazol-5-ylmethyl)-3,8-diazabicyclo[3.2.1]oct-3-yl]pyrimidin-2-amine]: the IC50 in assay [1] was 41 nM; in assay [2], 394 nM; in assay [3] it was above 10000 nM; in assay [4], 110 nM; in assay [5], 78 nM.
`CCNC(=O)N1[C@@H]2CC[C@H]1CN(c1ccnc(Nc3cnsc3)n1)C2` [Example 74, (1R,5S)—N-ethyl-3-[2-(1,2-thiazol-4-ylamino)pyrimidin-4-yl]-3,8-diazabicyclo[3.2.1 l]octane-8-carboxamide]: the IC50 was 65 nM in assay [1]; 691 nM in assay [2]; above 10000 nM in assay [3]; 67 nM in assay [4]; 213 nM in assay [5].
Regarding `CCNC(=O)N1[C@@H]2CC[C@H]1CN(c1ccnc(Nc3cnc(C(=O)NC)c(F)c3)n1)C2` [Example 87, (1R,5S)—N-ethyl-3-(2-{[5-fluoro-6-(methylcarbamoyl)pyridin-3-yl]amino}pyrimidin-4-yl)-3,8-diazabicyclo[3.2.1]octane-8-carboxamide], the IC50 in assay [1] was 93 nM; in assay [2] it was 1790 nM; in assay [3], above 10000 nM; in assay [4] it was 337 nM; in assay [5], 582 nM.
The corresponding values for `Cn1cc(Nc2nccc(N3C[C@H]4CC[C@@H](C3)N4C[C@@H]3CC3(F)F)n2)cn1` [Example 64, 4-[(1R,5S)-8-{[(1S)-2,2-difluorocyclopropyl]methyl}-3,8-diazabicyclo[3.2.1]oct-3-yl]-N-(1-methyl-1H-pyrazol-4-yl)pyrimidin-2-amine] are 41 nM, 320 nM, above 10000 nM, 95 nM and 71 nM.
Regarding `CNC(=O)c1ncc(Nc2nccc(N3C[C@H]4CC[C@@H](C3)N4C(=O)[C@@H]3C[C@H]3C#N)n2)cc1Cl` [Example 31, 3-chloro-5-({4-[(1R,5S)-8-{[(1R,2R)-2-cyanocyclopropyl]carbonyl}-3,8-diazabicyclo[3.2.1]oct-3-yl]pyrimidin-2-yl}amino)-N-methylpyridine-2-carboxamide], the IC50 in assay [1] is 32 nM; in assay [2], 401 nM; in assay [3], above 10000 nM; in assay [4], 78 nM; in assay [5], 284 nM.
Turning to `N#CCCN1[C@@H]2CC[C@H]1CN(c1ccnc(Nc3cn[nH]c3)n1)C2` [Example 79, 3-{(1R,5S)-3-[2-(1H-pyrazol-4-ylamino)pyrimidin-4-yl]-3,8-diazabicyclo[3.2.1]oct-8-yl}propanenitrile], the IC50 is 34 nM in assay [1]; 406 nM in assay [2]; 8420 nM in assay [3]; 38 nM in assay [4]; 65 nM in assay [5].
As for `O=C(C1CC1)N1[C@@H]2CC[C@H]1CN(c1ccnc(Nc3cn[nH]c3)n1)C2` [Example 49, cyclopropyl{(1R,5S)-3-[2-(1H-pyrazol-4-ylamino)pyrimidin-4-yl]-3,8-diazabicyclo[3.2.1]oct-8-yl}methanone], the IC50 in assay [1] is 49 nM; in assay [2], 614 nM; in assay [3], above 10000 nM; in assay [4] it was 77 nM; in assay [5], 85 nM.
`CNC(=O)c1ncc(Nc2nccc(N3C[C@H]4CC[C@@H](C3)N4C(=O)[C@@H]3C[C@H]3C#N)n2)cc1F` [Example 27, 5-({4-[(1R,5S)-8-{[(1R,2R)-2-cyanocyclopropyl]carbonyl}-3,8-diazabicyclo[3.2.1]oct-3-yl]pyrimidin-2-yl}amino)-3-fluoro-N-methylpyridine-2-carboxamide]: the half-maximal inhibitory concentration (IC50) is 61 nM in assay [1]; 640 nM in assay [2]; above 10000 nM in assay [3]; 78 nM in assay [4]; 139 nM in assay [5].
